This note sets out measurements from patent US20070179143A1 (priority 2003, published 2007).

For one data set, the system named is SK-OV-3. The data set is described as follows: Cytotoxicity test to cancer cell lines (SRB method), SK-OV-3. The format is cell-based. Conditions: Homo sapiens, SK-OV-3, 48 h, read-out: Cytotoxicity ED50 SK-OV-3.
The next data set relates to SK-MEL-2. The data set is described as follows: Cytotoxicity test to cancer cell lines (SRB method), SK-MEL-2. The format is cell-based. Particulars: Homo sapiens, SK-MEL-2, 48 h, read-out: Cytotoxicity ED50 SK-MEL-2. On the technique in general: In SRB staining, fixed cells bind dye roughly in proportion to their protein.
In another data set the test system is ICR mice. The data set is described as follows: in vivo. Conditions: for Death Total: ICR mice, 7 days, deaths/animals. On the procedure:
(§1) 5-week-old ICR mice having the weight of 25-35 g (SPF, SLC Co. Japan) were used as test animals. A pair of female and male of the mice was given for the test of each compound. Group T2, T3, T4 and T5 were arranged (10 animals per group) for the test of acute toxicity of the compound prepared in the Example 12. […] Control group (T1) was administered with only a solvent without the compound of the Example 12.
(§2) For comparison, colchicine was injected in the test animals by the same method as described in the above. The group treated with colchicine was composed of 6 mice.
(§3) Taxol produced by Bristol Myers Sqibb Co. was also used for comparison, and the injection and the test of acute toxicity were performed by the same method as described in the above.

A short description of a further data set: in vivo. Conditions: both, ICR, mouse, in vivo. As to the method: as §1, §2, §3
In the next data set the test system is A549. Nature of the data set: Cytotoxicity test to cancer cell lines (SRB method), A549. Conditions: Homo sapiens, A549, 48 h, read-out: Cytotoxicity ED50 A549.
The next data set relates to HCT-15. The data set is described as follows: Cytotoxicity test to cancer cell lines (SRB method), HCT-15. Particulars: Homo sapiens, HCT-15, 48 h, read-out: Cytotoxicity ED50 HCT15.
Data set [1] can be described thus: Body weight change of NCI-H460 xenografted nude mice. The format is in vivo, BALB/c nude mouse.
The test system of the next data set is MCF7. The data set is described as follows: Cytotoxicity test to cancer cell lines (SRB method), MCF7. Particulars: read-out: Cytotoxicity ED50 MCF-7, MCF-7, 48 hours.
Data set [2] deals with human lung cancer cell line NCI-H460. Nature of the data set: Inhibiting effect on tumor growth, NCI-H460 xenografted nude mice.
Method: Samples for the experiment were stored in a refrigerator all the time. […] The prepared sample is subject to be precipitated, so that tip sonication was performed right before the administration to disperse it well.
7 week-old female S.P.F. BALB/c nude mice, provided by Charles River Co., Japan, were used as test animals. The test animals were adapted in a Hepa-filter room over a week before the test. The temperature was 21±2° C., humidity was 55±5% and 12-hour light and dark cycle was automatically repeated in that lab. Solid feed (Cheiluedang) was sterilized by radioactive rays and drinking water was also sterilized by autoclave. Feed and water were taken by the animal freely. Cancer cell line used in this experiment was NCI-H460 (human lung tumor cell line) provided by Korea Research Institute of Bioscience and Biotechnology.
The tumor cell line, stored in liquid nitrogen, was thawed and cultured in a 37° C., 5% CO2 incubator for a required time. Upon completing the culture, all the cells were recovered and cell concentration of the culture fluid was adjusted using PBS to 3×10^7 cells/ml. The adjusted cell culture solution was injected hypodermically into armpit between right shoulder girdle and chest wall by 0.3 ml per mouse. From the next day of grafting, NCI-H460 xenografted nude mice were administered intraperitoneal everyday with the sample solution by 0.2 ml/20 g of weight, once a day.
After the grafting of tumor cells, the volume of a tumor in each individual was measured in three dimensions by using a vernier caliper, which was represented in the below <Mathematical Formula 2>. Tumor volume=(length×width×height)/2 <Mathematical Formula 2>
Body weight changes of animal were measured three times a week. Each xenografted nude mouse was sacrificed to separate a tumor, which was then weighed.
[3] abbreviates: 2 mg/kg intraperitoneal once a day.
The mark [4] stands for this setting: 10 mg/kg intraperitoneal once a day.
The mark [5] stands for this setting: 10 mg/kg intraperitoneal once a day, Day 14.

Method for A549: (§4) Cytotoxicity to A549 (Korea Research Institute of Chemical Technology), SK-OV-3 (Korea Research Institute of Chemical Technology), SK-MEL-2 (Korea Research Institute of Chemical Technology), HCT-15 (Korea Research Institute of Chemical Technology) and MCF7 (Korean Cell Line Bank, Seoul National University School of medicine) cells was measured by Sulforhodamin-B (SRB) method (1989, National Cancer Institute (NCI)) which was developed for the measurement of in vitro anticancer activity of a drug. Cells were separated using 0.25% trypsin-EDTA solution, leading to the preparation of a cell suspension by 5×10^318 2×10^4 cells/well. Then, the suspension was distributed into a 96 well plate by 100 μl/well, which was cultured in a 37° C., 5% CO2 incubator for 24 hours. Compounds prepared in examples of the present invention were used as a sample. Precisely, the compound was dissolved in dimethylsulfoxide and diluted with RPMI 1640 medium before being used as a sample. The final concentration of the sample used varied ranging 1 μM˜0.00001 μM. The medium was removed from the 96 well plate and then diluted sample solution was added by 100 μl/well, followed by further culture in a 37° C., 5% CO2 incubator for 48 hours. Tz (time zero) plate was collected from the point of adding the sample. Upon completing the culture, the medium was removed from each well along with Tz plate, then 10% trichloroacetic acid (TCA) was added by 100 μl/well. The plate was left at 4° C. for 1 hour to let cells be fixed on the floor of the plate. After cells were fixed completely, the plate was washed with water 5-6 times to remove the remaining trichloroacetic acid solution completely and moisture was completely dried at room temperature. 0.4% Sulforhodamine-B was dissolved in 1% acetic acid solution to prepare a staining solution. Cells were stained for 30 minutes with a dye added by 100 μl to each well of the completely dried plate. Then, the plate was washed with 1% acetic acid solution 5-6 times to remove sulforhodamine-B remained uncombined with cells. Then, the plate was dried at room temperature. 10 mM Tris solution was added by 100 μ/well thereto to dissolve the dye, and optical density (OD) was measured at 520 nm with a micro plate reader.
(§5) ED50 (concentration that inhibits cancer cell growth 50%, 5.0% effective dose, nM/ml) of the sample to cancer cell was calculated as follows. OD value at the point of beginning the culture with the sample was determined as Tz (time zero) value. OD value of a well to be cultured without the sample was determined as a control value (C). OD value of a well pretreated with the sample was determined as experimental value (T). After calculating Tz, C and T, cytotoxicity of the sample was measured by the below <Mathematical Formula 1>. T≦Tz, (T−Tz)/(C−Tz)×100 T>Tz, (T−Tz)/Tz×10,0 <Mathematical Formula 1>
(§6) ED50, the concentration that can inhibit cancer cell growth by 50%, was calculated by using a regression analysis of lotus program based on the degree of cytotoxicity obtained by the <Mathematical Formula 1>.
Method for MCF7: as §4, §5, §6

A word on the LD50: it is the dose expected to kill half of the subjects tested. Read a low LD50 as a more toxic substance. With `COc1cc2c(c(OC)c1OC)-c1ccc(OC)c(=O)cc1[C@@H](NC(C)=O)CC2` [Colchicine], the EC50 with SK-OV-3 turned out to be 18 nM; in the data set with SK-MEL-2 it was 6 nM; with A549, 21 nM; with HCT-15 it was 9 nM. For the same compound, the “Death Total” value in the data set on ICR mice (0.5 mg/kg) is reported as 0/6; with ICR mice (1.0 mg/kg), 0/6; in the data set with ICR mice (2.0 mg/kg), 3/6; in the data set with ICR mice (5.0 mg/kg) it was 5/5. In addition, in the data set with ICR mice (2.0 mg/kg, deaths on day 3), the “Test Day (Death) 3” value was 1. Besides, in the data set on ICR mice (2.0 mg/kg, deaths on day 6), the “Test Day (Death) 6” value is recorded as 2. Also, the “Test Day (Death) 2” value in the data set on ICR mice (5.0 mg/kg, deaths on day 2) is 3. In addition, the “Test Day (Death) 4” value in the data set on ICR mice (5.0 mg/kg, deaths on day 4) is 1. The “Test Day (Death) 5” value with ICR mice (5.0 mg/kg, deaths on day 5) is given as 1. For the same compound, the LD50 at 7 days in the data set “in vivo” stood at 2 mg/kg.
Take `COc1cccc2c1C(=O)c1c(O)c3c(c(O)c1C2=O)C[C@@](O)(C(=O)CO)C[C@@H]3O[C@H]1C[C@H](N)[C@H](O)[C@H](C)O1` [Doxorubicin, reference compound]: in data set [1] (setting [3]), the “Body weight Change Day 1” value came to 100.0 ± 0.0%, the “Body weight Change Day 3” value was 105.0 ± 4.1%, the “Body weight Change Day 7” value worked out at 103.9 ± 5.5% and the “Body weight Change Day 9” value was 100.5 ± 4.6 %. In [1] (setting [3]), the “Body weight Change Day 11” value turned out to be 96.4 ± 3.5 % and the “Body weight Change Day 14” value was determined as 85.1 ± 1.8 %. Further, the EC50 in the data set on SK-OV-3 is 47 nM. The EC50 in the data set on SK-MEL-2 is 16 nM. Further, in the data set on MCF7, the EC50 is 50 nM. For the same compound, the “Tumor Weight Day 14” value in data set [2] (2 mg/kg intraperitoneal once a day, Day 14) was determined as 534.1 ± 87.9 mg. Besides, in the data set with A549, the EC50 was determined as 13 nM. The EC50 with HCT-15 stood at 25 nM.
For `CCOc1cc2c(c(OC)c1OC)-c1ccc(SC)c(=O)cc1[C@@H](NC(=O)c1cccc(CO[N+](=O)[O-])c1F)CC2` [Example 8, N-[(7S)-3-ethoxy-1,2-dimethoxy-10-methylsulfanyl-9-oxo-5,6,7,9-tetrahydro-benzo[a]heptalen-7-yl]-2-fluoro-3-nitrooxymethyl-benzamide], in data set [1] (setting [4]), the “Body weight Change Day 1” value is 100.0 ± 0.0%, the “Body weight Change Day 3” value was 103.5 ± 2.2%, the “Body weight Change Day 7” value turned out to be 99.8 ± 4.3 % and the “Body weight Change Day 9” value is 92.3 ± 4.1 %. For the same compound, in [1] (setting [4]), the “Body weight Change Day 11” value came out at 89.3 ± 3.7 % and the “Body weight Change Day 14” value came out at 89.4 ± 5.3 %. Moreover, the “decrease of the weight of the mouse” value in [1] (comparing to solvent only or positive control) is given as “about 10%”. Besides, in the data set with SK-OV-3, the EC50 came out at 0.04 nM. Further, the EC50 with SK-MEL-2 is 0.01 nM. For the same compound, in the data set with MCF7, the EC50 is 0.01 nM. For the same compound, the “inhibition rate of the tumor volume” value in data set [2] (10 mg/kg) came out at 85%. Moreover, the “Tumor volume Day 0” value in data set [2] (10 mg/kg intraperitoneal once a day, Day 0) amounted to 0.0 ± 0.0. The “Tumor volume Day 4” value in [2] (10 mg/kg intraperitoneal once a day, Day 4) is on record as 18.0 ± 3.7. Further, the “Tumor volume Day 7” value in data set [2] (10 mg/kg intraperitoneal once a day, Day 7) stood at 25.2 ± 12.8. Moreover, in data set [2] (10 mg/kg intraperitoneal once a day, Day 9), the “Tumor volume Day 9” value worked out at 29.6 ± 13.8. In data set [2] (10 mg/kg intraperitoneal once a day, Day 11), the “Tumor volume Day 11” value is given as 35.2 ± 14.0. In data set [2] (setting [5]), the “Tumor Weight Day 14” value was 143.4 ± 57.8 mg and the “Tumor volume Day 14” value was determined as 44.5 ± 15.0. Also, the “size and weight of a tumor (in words)” value in data set [2] (comparing to solvent only (V.C-1, V.C-2) or positive control (taxol, adriamycin)) is “remarkably decreased”. For the same compound, the EC50 with A549 came out at 0.02 nM. Besides, the EC50 in the data set on HCT-15 is 0.03 nM.
Turning to `COc1cc2c(c(OC)c1OC)-c1ccc(SC)c(=O)cc1[C@@H](NC(=O)c1cccc(COC(=O)CCCO[N+](=O)[O-])c1)CC2` [Example 34, 4-nitrooxybutyric acid-3-[(7S)-1,2,3-trimethoxy-10-methylsulfanyl-9-oxo-5,6,7,9-tetrahydro-benzo[a]heptalen-7-yl-carbamoyl]-benzylester], the EC50 came out at 0.01 nM in the data set with SK-OV-3; 0.01 nM with SK-MEL-2; 0.01 nM with MCF7; 0.06 nM with A549; 0.01 nM in the data set with HCT-15.
Regarding `COc1cc2c(c(OC)c1OC)-c1ccc(SC)c(=O)cc1[C@@H](NC(=O)c1ccccc1SN=O)CC2` [Example 35, 2-nitrosothio-N-[(7S)-1,2,3-trimethoxy-10-methylsulfanyl-9-oxo-5,6,7,9-tetrahydro-benzo[a]heptalen-7-yl]-benzamide], the EC50 with SK-OV-3 was over 50 nM; in the data set on SK-MEL-2 it was 41.9 nM; with MCF7 it was 24.7 nM; with A549 it was over 50 nM; with HCT-15, 20.9 nM.
For `COc1cc2c(c(OC)c1OC)-c1ccc(SC)c(=O)cc1[C@@H](NC(=O)c1cc(F)cc(CON=O)c1)CC2` [Example 37, 3-fluoro-5-nitrosooxymethyl-N-[(7S)-1,2,3-trimethoxy-10-methylsulfanyl-9-oxo-5,6,7,9-tetrahydro-benzo[a]heptalen-7-yl]-benzamide], the EC50 in the data set with SK-OV-3 was 38.8 nM; in the data set on SK-MEL-2, 9.4 nM; in the data set with MCF7, 10.3 nM; in the data set on A549 it was over 50 nM; in the data set on HCT-15, 7.5 nM.
`COc1cc2c(c(OC)c1OC)-c1ccc(SC)c(=O)cc1[C@@H](NC(=O)c1cc(F)cc(CSN=O)c1)CC2` [Example 39, 3-fluoro-5-nitrosothiomethyl-N-[(7S)-1,2,3-trimethoxy-10-methylsulfanyl-9-oxo-5,6,7,9-tetrahydro-benzo[a]heptalen-7-yl]-benzamide]: the EC50 is 28.2 nM with SK-OV-3; over 50 nM in the data set with SK-MEL-2; 5 nM with MCF7; 40.7 nM with A549; 9.9 nM in the data set on HCT-15.
Take `COc1cc2c(c(OC)c1OC)-c1ccc(OC)c(=O)cc1[C@@H](NC(=O)c1cc(F)cc(CO[N+](=O)[O-])c1)CC2` [Example 40, 3-fluoro-5-nitrooxymethyl-N-[(7S)-1,2,3,10-tetramethoxy-9-oxo-5,6,7,9-tetrahydro-benzo[a]heptalen-7-yl]-benzamide]: the EC50 with SK-OV-3 was determined as 45.6 nM; with SK-MEL-2, 60.7 nM; with MCF7, 10.5 nM; in the data set with A549 it was 43.9 nM; in the data set on HCT-15 it was 24.3 nM.
In the case of `COc1cc2c(c(OC)c1OC)-c1ccc(SC)c(=O)cc1[C@@H](N(C)C(=O)c1cccc(CO[N+](=O)[O-])c1)CC2` [Example 41, 3-nitrooxymethyl-N-methyl-N-[(7S)-1,2,3-trimethoxy-10-methylsulfanyl-9-oxo-5,6,7,9-tetrahydro-benzo[a]heptalen-7-yl]-benzamide], the EC50 was over 50 nM in the data set on SK-OV-3; over 50 nM in the data set on SK-MEL-2; 47.3 nM with MCF7; over 50 nM in the data set with A549; 36.4 nM in the data set with HCT-15.
With `COc1cc2c(c(OC)c1OC)-c1ccc(SC)c(=O)cc1[C@@H](N(C)C(=O)c1cc(F)cc(CO[N+](=O)[O-])c1)CC2` [Example 42, 3-fluoro-N-methyl-5-nitrooxymethyl-N-[(7S)-1,2,3-trimethoxy-10-methylsulfany-9-oxo-5,6,7,9-tetrahydro-benzo[a]heptalen-7-yl]-benzamide], the EC50 in the data set on SK-OV-3, in the data set on SK-MEL-2, in the data set on MCF7, with A549 and with HCT-15 was over 50 nM in each case.
